According to PubChem BioAssay (NCI):
Values joined by “and” are separate entries in the source; they are usually repeats but may differ in a detail not shown here. Identical values can stand only once.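 Assay format: 96-well plates, 48-hour exposure. GI50 is the concentration that inhibits growth by half. TGI marks complete inhibition of growth.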

Assays:
Experiment in all cases: growth of human tumour cells (NCI), 48 h
[1] = system: NCI-H522 lung
[2] = system: SNB-75 CNS
[3] = system: HCT-15 colon
[4] = system: SW-620 colon
[5] = system: NCI-H23 lung
[6] = system: HCT-116 colon
[7] = system: HT29 colon
[8] = system: OVCAR-5 ovarian
[9] = system: HS 578T breast
[10] = system: SN12C renal

SMILES	GI50 [1] [µM]	TGI [1] [µM]	GI50 [2] [µM]	TGI [2]	GI50 [3] [µM]	TGI [3] [µM]	GI50 [4] [µM]	TGI [4] [µM]	GI50 [5] [µM]	TGI [5] [µM]	GI50 [6] [µM]	TGI [6] [µM]	GI50 [7] [µM]	TGI [7]	GI50 [8] [µM]	TGI [8] [µM]	GI50 [9] [µM]	TGI [9] [µM]	GI50 [10] [µM]	TGI [10] [µM]
NC(N)=N/N=C/c1ccc(Br)cc1	4.39	17.7	1.6	5.76 µM	3.89	19	3.8	15.9	4.81	19.6	4.02	15.8	3.03	11.3 µM	10.4	24.9	3.33	10.2	6.55	20.2
N#CC(CC(=O)O)=C(c1ccccc1)c1ccccc1		> 100		> 100 µM		> 100		> 100		> 100		> 100		> 100 µM		> 100		> 100		> 100
CCCCCCCCCCCCCCCC(N)c1ccccc1 (configuration not stated)	1.62	3.21	1.27	2.88 µM	1.67	3.09	1.61	3.19	1.74	3.35			1.66	3.32 µM	1.49	3.1	2.02	4.64	1.8	3.51
NS(=O)(=O)c1ccc(N=Nc2c(=O)[nH]c3ccc4[nH]cccc4c23)cc1	0.197	0.818	0.404	1.3 µM	2.12	> 25	0.356	> 7.23	0.671	3.77	0.151	> 25	0.875	> 25 µM	1.02	> 25	0.575	> 6.85	0.47	> 25
CCCC(CCC)C(=O)O	> 100	> 20000	> 100	> 100 µM and 18400 µM	> 100	> 20000	> 100	> 20000	> 20000	> 20000	> 100	> 20000	> 100	> 100 µM and 12400 µM	> 20000	> 20000		> 20000	> 20000	> 20000
CC(=O)N1c2ccc(-c3ccc(C(=O)O)cc3)cc2[C@H](Nc2ccc(Cl)cc2)C[C@@H]1C	0.0637	11.5	< 0.0165	> 100 µM	0.0613	13.5	11.1	> 62	0.918	44.3	0.266	15.2	0.122	29 µM	1.45	> 46.6	0.0549	> 57.9	3.89	99
